Measured values reported in US10844077B2, “Thiazolyl-containing compounds for treating proliferative diseases” (Dana-Farber Cancer Institute, Inc., priority 2014, dated 2020).
Where two headings read alike, the source gives them in different places.

Tests used:
Type in all cases: cell-based
kinases in BCWM.1 cells [1] = target: kinases in BCWM.1 cells (Homo sapiens, UniProt P42338); details: PIK3CB; ATP; 1 μM, 90 min; GF
Experimental: (§1) The cells were harvested and lysed. […] Bound kinases were identified and quantitated by ACTIVX as described in Patricelli et al., Biochemistry, 2007, 46(2): 350-358. The compounds were tested in duplicates against duplicate or quadruplicate control samples.

kinases in BCWM.1 cells [2] = target: kinases in BCWM.1 cells (Homo sapiens, UniProt Q9BZL6); details: PKD2; Lys1; 1 μM, 90 min; GF
Experimental: as §1

kinases in BCWM.1 cells [3] = target: kinases in BCWM.1 cells (Homo sapiens, UniProt Q13464); details: ROCK1; Protein Kinase Domain; 1 μM, 90 min; GF
Experimental: as §1

kinases in BCWM.1 cells [4] = target: kinases in BCWM.1 cells (Homo sapiens, UniProt Q14289); details: PYK2; Activation Loop; 1 μM, 90 min; GF
Experimental: as §1

kinases in BCWM.1 cells [5] = target: kinases in BCWM.1 cells (Homo sapiens, UniProt Q9UKI8); details: TLK1; Lys2; 1 μM, 90 min; GF
Experimental: as §1

kinases in BCWM.1 cells [6] = target: kinases in BCWM.1 cells (Homo sapiens, UniProt Q58A45); details: PAN3; Protein Kinase Domain; 1 μM, 90 min; GF
Experimental: as §1

kinases in BCWM.1 cells [7] = target: kinases in BCWM.1 cells (Homo sapiens, UniProt P29597); details: TYK2 domain2; Activation Loop; 1 μM, 90 min; GF
Experimental: as §1

kinases in BCWM.1 cells [8] = target: kinases in BCWM.1 cells (Homo sapiens, UniProt Q86SG6); details: NEK8; Lys2; 1 μM, 90 min; GF
Experimental: as §1

kinases in BCWM.1 cells [9] = target: kinases in BCWM.1 cells (Homo sapiens, UniProt Q15349); details: RSK3 domain1; Lys2; 1 μM, 90 min; GF
Experimental: as §1

kinases in BCWM.1 cells [10] = target: kinases in BCWM.1 cells (Homo sapiens, UniProt O00750); details: PIK3C2B; ATP; 1 μM, 90 min; GF
Experimental: as §1

kinases in BCWM.1 cells [11] = target: kinases in BCWM.1 cells (Homo sapiens, UniProt P51955); details: NEK2; Lys2; 1 μM, 90 min; GF
Experimental: as §1

kinases in BCWM.1 cells [12] = target: kinases in BCWM.1 cells (Homo sapiens, UniProt Q9UBE8); details: NLK; Lys2; 1 μM, 90 min; GF
Experimental: as §1

kinases in BCWM.1 cells [13] = target: kinases in BCWM.1 cells (Homo sapiens, UniProt Q8NEB9); details: PIK3C3; ATP; 1 μM, 90 min; GF
Experimental: as §1

kinases in BCWM.1 cells [14] = target: kinases in BCWM.1 cells (Homo sapiens, UniProt O15530); details: PDK1; Lys1; 1 μM, 90 min; GF
Experimental: as §1

kinases in BCWM.1 cells [15] = target: kinases in BCWM.1 cells (Homo sapiens, UniProt Q9Y2I7); details: PIP5K3; ATP; 1 μM, 90 min; GF
Experimental: as §1

kinases in BCWM.1 cells [16] = target: kinases in BCWM.1 cells (Homo sapiens, UniProt P23443); details: p70S6K; Lys2; 1 μM, 90 min; GF
Experimental: as §1

kinases in BCWM.1 cells [17] = target: kinases in BCWM.1 cells (Homo sapiens, UniProt Q9UKE5); details: ZC2/TNIK; Lys1; 1 μM, 90 min; GF
Experimental: as §1

kinases in BCWM.1 cells [18] = target: kinases in BCWM.1 cells (Homo sapiens, UniProt Q9BYT3); details: STK33; Lys2; 1 μM, 90 min; GF
Experimental: as §1

kinases in BCWM.1 cells [19] = target: kinases in BCWM.1 cells (Homo sapiens, UniProt Q9NYL2); details: ZAK; Lys1; 1 μM, 90 min; GF
Experimental: as §1

kinases in BCWM.1 cells [20] = details: 1 μM, 90 min, GF
Experimental: as §1

kinases in BCWM.1 cells [21] = target: kinases in BCWM.1 cells (Homo sapiens, UniProt Q9Y2H1); details: NDR2; Lys2; 1 μM, 90 min; GF
Experimental: as §1

kinases in BCWM.1 cells [22] = target: kinases in BCWM.1 cells (Homo sapiens, UniProt P53350); details: PLK1; Lys1; 1 μM, 90 min; GF
Experimental: as §1

kinases in BCWM.1 cells [23] = target: kinases in BCWM.1 cells (Homo sapiens, UniProt Q16816); details: PHKg1; Protein Kinase Domain; 1 μM, 90 min; GF
Experimental: as §1

kinases in BCWM.1 cells [24] = target: kinases in BCWM.1 cells (Homo sapiens, UniProt Q96Q15); details: SMG1; ATP; 1 μM, 90 min; GF
Experimental: as §1

kinases in BCWM.1 cells [25] = target: kinases in BCWM.1 cells (Homo sapiens, UniProt O75385); details: ULK1; Lys2; 1 μM, 90 min; GF
Experimental: as §1

kinases in BCWM.1 cells [26] = target: kinases in BCWM.1 cells (Homo sapiens, UniProt O94921)
Experimental: as §1

Chain of kinases in BCWM.1 cells (Homo sapiens, UniProt Q13464) (Q13464 2-1354 limits assumed): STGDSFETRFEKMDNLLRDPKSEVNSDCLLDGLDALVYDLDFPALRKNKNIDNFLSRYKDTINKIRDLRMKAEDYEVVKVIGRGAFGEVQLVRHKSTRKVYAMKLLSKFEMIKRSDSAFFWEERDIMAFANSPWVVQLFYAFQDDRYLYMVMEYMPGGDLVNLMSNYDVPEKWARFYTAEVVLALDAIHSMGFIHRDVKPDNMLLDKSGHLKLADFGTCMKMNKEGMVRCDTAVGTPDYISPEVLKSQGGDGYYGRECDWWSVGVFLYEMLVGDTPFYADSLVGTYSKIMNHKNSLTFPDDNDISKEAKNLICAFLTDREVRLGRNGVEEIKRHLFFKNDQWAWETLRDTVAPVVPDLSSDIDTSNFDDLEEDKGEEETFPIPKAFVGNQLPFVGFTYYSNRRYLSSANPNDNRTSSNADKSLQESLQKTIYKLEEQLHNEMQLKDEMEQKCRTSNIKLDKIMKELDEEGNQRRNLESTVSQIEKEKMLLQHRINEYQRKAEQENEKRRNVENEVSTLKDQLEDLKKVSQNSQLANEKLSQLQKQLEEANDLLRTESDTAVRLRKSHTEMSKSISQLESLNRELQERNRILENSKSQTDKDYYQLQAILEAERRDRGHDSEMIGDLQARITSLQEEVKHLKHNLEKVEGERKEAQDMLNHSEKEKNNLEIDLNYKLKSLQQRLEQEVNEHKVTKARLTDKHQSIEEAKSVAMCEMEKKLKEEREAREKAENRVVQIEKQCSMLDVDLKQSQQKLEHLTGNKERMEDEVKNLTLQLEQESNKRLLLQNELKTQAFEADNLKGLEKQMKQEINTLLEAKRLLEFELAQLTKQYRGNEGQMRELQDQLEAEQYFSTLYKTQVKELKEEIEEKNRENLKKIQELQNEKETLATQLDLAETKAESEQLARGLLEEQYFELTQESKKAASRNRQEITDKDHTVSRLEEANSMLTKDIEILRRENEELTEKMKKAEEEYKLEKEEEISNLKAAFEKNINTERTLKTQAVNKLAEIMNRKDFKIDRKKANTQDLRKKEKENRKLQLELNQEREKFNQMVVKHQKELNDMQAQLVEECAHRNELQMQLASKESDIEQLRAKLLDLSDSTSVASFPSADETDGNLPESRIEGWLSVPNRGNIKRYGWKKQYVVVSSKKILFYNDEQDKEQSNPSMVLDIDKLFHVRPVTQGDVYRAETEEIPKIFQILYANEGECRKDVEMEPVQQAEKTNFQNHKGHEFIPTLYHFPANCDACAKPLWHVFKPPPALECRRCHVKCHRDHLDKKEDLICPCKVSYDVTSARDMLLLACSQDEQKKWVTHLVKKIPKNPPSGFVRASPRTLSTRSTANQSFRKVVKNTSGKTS
Chain of kinases in BCWM.1 cells (Homo sapiens, UniProt Q9Y2H1) (Q9Y2H1 2-464 limits assumed): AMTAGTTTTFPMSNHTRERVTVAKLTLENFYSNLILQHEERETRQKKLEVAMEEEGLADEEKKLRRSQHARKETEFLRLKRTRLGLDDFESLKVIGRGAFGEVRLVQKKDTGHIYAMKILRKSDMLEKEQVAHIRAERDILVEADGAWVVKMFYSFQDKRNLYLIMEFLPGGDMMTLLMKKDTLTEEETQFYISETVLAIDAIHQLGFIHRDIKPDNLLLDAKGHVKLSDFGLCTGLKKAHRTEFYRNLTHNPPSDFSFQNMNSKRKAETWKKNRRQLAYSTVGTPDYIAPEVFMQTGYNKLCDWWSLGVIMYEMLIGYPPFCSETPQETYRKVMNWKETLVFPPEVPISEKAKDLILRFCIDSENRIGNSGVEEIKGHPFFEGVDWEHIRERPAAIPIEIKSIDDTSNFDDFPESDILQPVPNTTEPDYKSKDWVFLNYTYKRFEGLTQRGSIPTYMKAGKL
Chain of kinases in BCWM.1 cells (Homo sapiens, UniProt P53350) (P53350 2-603 limits assumed): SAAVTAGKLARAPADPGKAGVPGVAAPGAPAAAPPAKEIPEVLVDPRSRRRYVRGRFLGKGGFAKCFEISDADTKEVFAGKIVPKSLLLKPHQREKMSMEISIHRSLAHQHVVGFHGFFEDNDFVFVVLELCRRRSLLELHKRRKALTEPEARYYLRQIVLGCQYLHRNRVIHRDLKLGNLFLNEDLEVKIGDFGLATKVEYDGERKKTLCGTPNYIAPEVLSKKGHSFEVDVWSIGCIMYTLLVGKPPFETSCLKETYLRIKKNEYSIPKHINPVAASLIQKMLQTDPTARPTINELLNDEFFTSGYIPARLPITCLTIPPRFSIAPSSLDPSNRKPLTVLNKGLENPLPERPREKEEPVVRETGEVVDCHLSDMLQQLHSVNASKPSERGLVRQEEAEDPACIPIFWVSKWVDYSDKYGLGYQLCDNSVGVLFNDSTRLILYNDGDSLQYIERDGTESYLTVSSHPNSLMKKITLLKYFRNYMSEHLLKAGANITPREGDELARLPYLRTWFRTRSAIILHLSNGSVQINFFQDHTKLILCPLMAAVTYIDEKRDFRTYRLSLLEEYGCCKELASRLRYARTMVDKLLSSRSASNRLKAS
Chain of kinases in BCWM.1 cells (Homo sapiens, UniProt Q9NYL2) (Q9NYL2 2-800 limits assumed): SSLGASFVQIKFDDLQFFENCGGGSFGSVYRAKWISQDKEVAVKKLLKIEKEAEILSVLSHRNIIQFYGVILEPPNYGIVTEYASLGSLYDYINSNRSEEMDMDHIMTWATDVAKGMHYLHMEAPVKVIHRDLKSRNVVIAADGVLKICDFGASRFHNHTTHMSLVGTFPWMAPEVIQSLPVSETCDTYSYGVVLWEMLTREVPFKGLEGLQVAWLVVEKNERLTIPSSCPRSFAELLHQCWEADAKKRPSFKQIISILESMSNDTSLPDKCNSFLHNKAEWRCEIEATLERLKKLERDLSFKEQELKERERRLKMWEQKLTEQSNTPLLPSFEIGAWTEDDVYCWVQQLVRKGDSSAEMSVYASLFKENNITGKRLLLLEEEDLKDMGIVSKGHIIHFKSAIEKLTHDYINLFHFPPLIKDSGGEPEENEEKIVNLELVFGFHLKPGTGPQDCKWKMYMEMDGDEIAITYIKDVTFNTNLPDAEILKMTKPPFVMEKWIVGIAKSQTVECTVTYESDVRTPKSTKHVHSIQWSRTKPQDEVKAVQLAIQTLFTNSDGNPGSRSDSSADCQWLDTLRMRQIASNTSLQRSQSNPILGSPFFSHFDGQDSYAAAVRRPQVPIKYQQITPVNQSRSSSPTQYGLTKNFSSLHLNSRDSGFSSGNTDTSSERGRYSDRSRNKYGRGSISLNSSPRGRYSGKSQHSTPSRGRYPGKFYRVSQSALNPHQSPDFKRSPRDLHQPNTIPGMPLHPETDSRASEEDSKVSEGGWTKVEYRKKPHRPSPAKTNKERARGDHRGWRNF

Structure (SMILES): C=CC(=O)N1CC[C@H](Nc2nccc(Nc3ncc(C(=O)Nc4c(C)cccc4C)s3)n2)C1 [Example I-3]
- % change of MS signal compared to control sample (kinases in BCWM.1 cells [1]): 39.9%
- % change of MS signal compared to control sample (kinases in BCWM.1 cells [2]): −1.4%
- % change of MS signal compared to control sample (kinases in BCWM.1 cells [3]): −16.9%
- % change of MS signal compared to control sample (kinases in BCWM.1 cells [4]): −12.1%
- % change of MS signal compared to control sample (kinases in BCWM.1 cells [5]): −6.9%
- % change of MS signal compared to control sample (kinases in BCWM.1 cells [6]): 2.5%
- % change of MS signal compared to control sample (kinases in BCWM.1 cells [7]): −5.5%
- % change of MS signal compared to control sample (kinases in BCWM.1 cells [8]): −14.5%
- % change of MS signal compared to control sample (kinases in BCWM.1 cells [9]): −19%
- % change of MS signal compared to control sample (kinases in BCWM.1 cells [10]): 39.1%
- % change of MS signal compared to control sample (kinases in BCWM.1 cells [11]): 0.9%
- % change of MS signal compared to control sample (kinases in BCWM.1 cells [12]): 85.9%
- % change of MS signal compared to control sample (kinases in BCWM.1 cells [13]): −0.8%
- % change of MS signal compared to control sample (kinases in BCWM.1 cells [14]): −3.5%
- % change of MS signal compared to control sample (kinases in BCWM.1 cells [15]): −4.6%
- % change of MS signal compared to control sample (kinases in BCWM.1 cells [16]): −51.5%
- % change of MS signal compared to control sample (kinases in BCWM.1 cells [17]): 32.9%
- % change of MS signal compared to control sample (kinases in BCWM.1 cells [18]): 11.8%
- % change of MS signal compared to control sample (kinases in BCWM.1 cells [19]): 21.2%
- % change of MS signal compared to control sample (kinases in BCWM.1 cells [20]; MST4, YSK1, Lys2): 15.5%
- % change of MS signal compared to control sample (kinases in BCWM.1 cells [20]; NEK6, NEK7, Lys2): −13.1%
- % change of MS signal compared to control sample (kinases in BCWM.1 cells [20]; PCTAIRE2, PCTAIRE3, Lys1): −12%
- % change of MS signal compared to control sample (kinases in BCWM.1 cells [20]; PI4KA, PI4KAP2, ATP): 12%
- % change of MS signal compared to control sample (kinases in BCWM.1 cells [20]; PKACa, PKCb, Lys2): 3.3%
- % change of MS signal compared to control sample (kinases in BCWM.1 cells [20]; ROCK1, ROCK2, Lys2): 12.5%
- % change of MS signal compared to control sample (kinases in BCWM.1 cells [20]; RSK1 domain1, RSK2 domain1, RSK3 domain1, Lys2): −7.3%
- % change of MS signal compared to control sample (kinases in BCWM.1 cells [20]; SRPK1, SRPK2, Lys1): 22.3%
- % change of MS signal compared to control sample (kinases in BCWM.1 cells [20]; TAO1, TAO3, Lys2): 14.3%
- % change of MS signal compared to control sample (kinases in BCWM.1 cells [20]; Wnk1, Wnk2, Wnk3, Lys2): −1.2%
- % change of MS signal compared to control sample (kinases in BCWM.1 cells [20]; Wnk1, Wnk2, ATP Loop): 6.8%
- % change of MS signal compared to control sample (kinases in BCWM.1 cells [20]; ZC1/HGK, ZC2/TNIK, ZC3/MINK, Lys2): −0.1%
- % change of MS signal compared to control sample (kinases in BCWM.1 cells [20]; p38d, p38g, Lys2): −0.7%
- % change of MS signal compared to control sample (kinases in BCWM.1 cells [21]): −9.6%
- % change of MS signal compared to control sample (kinases in BCWM.1 cells [22]): −23%
- % change of MS signal compared to control sample (kinases in BCWM.1 cells [23]): −38.8%
- % change of MS signal compared to control sample (kinases in BCWM.1 cells [24]): −36.7%
- % change of MS signal compared to control sample (kinases in BCWM.1 cells [25]): −8.2%
- % change of MS signal compared to control sample (kinases in BCWM.1 cells [26]): −6.6%
